One series concerns serotonin receptors. Nature of the series: in vitro binding, serotonin receptors. The note with it: in vitro binding testing. The source says: (§1) The Formula I compounds are useful pharmacologic agents with psychotropic properties. […] Specifically, nefazodone triazoldione (XIb, "nef-triazoldione") was comparatively tested with nefazodone and the 5-hydroxyethyl metabolite ("OH-nefazodone"). […] The latter observation is significant in that agents with low affinity for alpha-receptors relative to serotonin type 2 receptors are less likely to elicit certain undesirable side effects, such as sedation and lowering of blood pressure.

The nature of series [1]: metabolite conversion experiment with in vitro human liver microsomal preparation. Format: in vitro ADME. Conditions: compound as substrate.
Series [2] is described as follows: HPLC of plasma from dogs given nefazodone. Format: in vivo, dog. The note with it: identified by HPLC retention time only. An excerpt: The similarity of HPLC retention times for both keto-nefazodone and the parent drug nefazodone in many HPLC systems, as well as the small amount of the compound complicate the detection of this putative metabolite.
Another series has as its system dopamine receptor. The experiment in a line: dopamine receptor binding. Conditions: in vitro binding.
Text: as §1

In another series the test system is alpha-receptor. Nature of the series: alpha-receptor binding. The note with it: in vitro binding.
Text: as §1

The subject of series [3] is serotonin type 2 receptor sites. The experiment in a line: 5-HT2-mediated DOI-induced headshake response in rat. Format: in vivo. Conditions: acute effect. The procedure: The efficacy of nef-triazoldione at serotonin type 2 receptor sites in vivo was determined by examining its acute effect in a rat model based on the 5-HT2 -mediated DOI (chemically, 1-(2,5-dimethoxy-4-iodophenyl)-2-aminopropane)-induced headshake response. Cf: Bedard and Pycock, Neuropharmacology 16: 663-670 (1977). […] Thus the in vivo results which correlate with selective in vitro binding are indicative of useful antidepressant effects following systemic administration of these compounds.

In the next series the test system is cholinergic receptor. The experiment in a line: cholinergic receptor binding. The note with it: in vitro binding.
Text: as §1

The test system of series [4] is serotonin type 2 receptors. Nature of the series: in vitro binding, serotonin type 2 receptors. Conditions: compared with nefazodone and OH-nefazodone.
Text: as §1

Series [5] can be described thus: circulating metabolite after nefazodone administration to humans and animals. Format: in vivo, humans and animals (rat and dog). The source says:
The present invention concerns compounds of Formula I and their acid addition salts and/or hydrates. [drawing 3] In the foregoing structural formula the symbol R denotes halogen, preferably chloro, and trifluoromethyl; Z is hydrogen and [drawing 4] with R^1 being hydrogen, halogen, C1-4 alkoxy and trifluoromethyl; and n is an integer from 2-4. The symbol X is either an oxygen atom, providing a carbonyl moiety; or is an acetyl group. The single and dotted lines represent either a covalent single bond or a double bond. The compounds of Formula I exist then in two structural subclasses, Ia and Ib. [drawing 5] Compounds of formula I arose from investigations of the metabolism of the antidepressant drug nefazodone. […] Subsequently, this new major metabolite was isolated and identified as having the following structure: [drawing 6]
It should be appreciated that compound Ib could also be obtained by enzymatic (human liver microsomes) conversion of compound Ia in vitro. Administration of nefazodone or structural analogs to mammals will result in significant plasma levels of the related Ib compounds. By "significant plasma levels" is meant that these levels are from one to several-fold higher than those of the parent drug.

[6] abbreviates: compared with nefazodone and OH-nefazodone.

On to `CCc1nn(CCCN2CCN(c3cccc(Cl)c3)CC2)c(=O)n1CCOc1ccccc1` [nefazodone, Nefazodone], for which the “affinity for serotonin receptors” value in the series on serotonin receptors is recorded as “displays affinity for serotonin receptors”.

For `CC(O)c1nn(CCCN2CCN(c3cccc(Cl)c3)CC2)c(=O)n1CCOc1ccccc1` (centres unmarked) [OH-nefazodone], the “affinity for serotonin receptors” value with serotonin receptors is “displays affinity for serotonin receptors”.

In the case of `CC(=O)c1nn(CCCN2CCN(c3cccc(Cl)c3)CC2)c(=O)n1CCOc1ccccc1.Cl` [keto-nefazodone, 2-(3-[4-(3-Chlorophenyl)-1-piperazinyl]propyl)-5-acetyl-2,4-dihydro-4-(2-phenoxyethyl)-3H-1,2,4-triazol-3-one hydrochloride], the “metabolite produced from substrate” value in series [1] was “nefazodone triazoldione (XIb) was produced and isolated”. In addition, the “amount in plasma by HPLC” value in series [2] was “small amounts”.

As to `Cl.O=c1[nH]n(CCCN2CCN(c3cccc(Cl)c3)CC2)c(=O)n1CCOc1ccccc1` [nef-triazoldione, 2-(3-[4-(3-Chlorophenyl)-1-piperazinyl]propyl)-4-(2-phenoxyethyl)-4H-1,2,4-triazole-3,5(1H,2H)-dione hydrochloride], in the series with serotonin receptors, the “affinity for serotonin receptors” value is “displays affinity for serotonin receptors”. In addition, the dopamine receptor binding entry with dopamine receptor is “relatively inactive”. In addition, in the series with alpha-receptor, the alpha-receptor binding entry was “relatively inactive”. In addition, in the series on alpha-receptor (setting [6]), the “affinity at alpha-receptor binding sites relative to reference compounds” value was “lower affinity at alpha-receptor binding sites than the two reference compounds”. Besides, in series [3], the “inhibition of the DOI-induced headshake response” value is reported as “modest inhibition”. Also, the “potency in DOI-induced headshake test relative to reference compounds” value in series [3] (setting [6]) is “less potent than either nefazodone or OH-nefazodone”. The cholinergic receptor binding result in the series with cholinergic receptor was “relatively inactive”. In [4], the “binding at serotonin type 2 receptors” value is “not as robust as for both nefazodone and OH-nefazodone”. In addition, the “metabolite in urine or bile samples” value in [5] (following nefazodone administration) was “No indication of this circulating metabolite had been seen in urine or bile samples”. Also, the “blood levels of metabolite” value in series [5] (following nefazodone administration to humans and animals (rat and dog)) was “Blood levels of a new and uncharacterized major metabolite of nefazodone were observed”.
